29 molecules from patent US20240317749A1, “THERAPEUTIC COMPOUNDS” (priority 2021, published 2024) can be followed below.

Converted amounts (≈) assume the structure as drawn.

The subject of experiment [1] is N. gonorrhoeae ATCC 49226. Nature of the experiment: MIC assay for N. gonorrhoeae, broth microdilution in Todd-Hewitt (TH) broth. To be noted: Neisseria gonorrhoeae, ATCC49226; Antibacterial Activity against N. gonorrhoeae ATCC 49226 in TH. It counts as cell-based. An excerpt:
MIC assays for N. gonorrhoeae were done using the ATCC 49226 strain. The procedure guidelines recommended by the Clinical and Laboratory Standards Institute (CLSI) for the broth microdilution MIC assay were modified by substituting […]. Also, the recommended bacterial inoculum was modified to meet the high inoculum demands needed for N. gonorrhoeae growth. A 96-well plate containing TH broth with 2-fold serial dilution of compounds was inoculated with log-phase bacterial at 2.5×10^7 CFU/mL. The final volume in each well was 200 μL. Each compound was tested in duplicate. The microtiter plates were incubated in an […] environment for 24 hours at 37° C. using the candle jar technique. Then the bacterial growth was tested by reading the plate with a SpectraMax iD5 plate reader (Molecular Devices, Inc.) at 600 nm. The MIC was defined as the lowest compound concentration that inhibited bacteria growth.
In general terms: Dilution methods test growth across graded concentrations, often in twofold steps.

For experiment [2], the system named is Methicillin-susceptible S. aureus (MSSA) ATCC 19636. As to the kind of experiment: MIC assay, CLSI broth microdilution in CAMH broth. It counts as cell-based, Staphylococcus aureus. Here is the method: (§1) MIC assays for various Gram-negative and Gram-positive strains were conducted in accordance with the CLSI guidelines for broth microdilution. A 96-well plate containing CAMH broth with 2-fold serial dilution of compounds was inoculated with log-phase bacterial at 5×10^5 CFU/mL. The final volume in each well was 100 μL. Each compound was tested in duplicate. The microtiter plates were incubated in an aerobic environment for 18 hours at 37° C. Then the bacterial growth was tested by reading the plate with a SpectraMax iD5 plate reader (Molecular Devices, Inc.) at 600 nm. The MIC was defined as the lowest compound concentration that inhibited bacteria growth.
(§2) The following Gram-negative and Gram-positive strains were used in the aerobic MIC procedure: • P. aeruginosa ATCC 27853 • A. baumannii ATCC 19606 • E. coli ATCC 25922 • E. coli W4573 • E. coli N43 • K. pneumoniae ATCC 10031 • K. pneumoniae ATCC 13883 • S. sonnei ATCC 29930 • P. mirabilis ATCC 29906 • Methicillin-susceptible S. aureus (MSSA) ATCC 19636 • Methicillin-resistant S. aureus (MRSA) ATCC 33951

The test system of another experiment is P. mirabilis ATCC 29906. As to the kind of experiment: MIC assay, CLSI broth microdilution in CAMH broth. It counts as cell-based, Proteus mirabilis. Here is the method: as §1, §2
Experiment [3] deals with Methicillin-resistant S. aureus (MRSA) ATCC 33591. Nature of the experiment: MIC assay, CLSI broth microdilution in CAMH broth. It counts as cell-based, Staphylococcus aureus. Here is the method: as §1, with “growth. […]” for “growth.”

As to `Nc1nc(N)c2ccc3c(ccn3Cc3ccccc3)c2n1` [Example 1, 7-benzyl-7H-pyrrolo[2,3-h]quinazoline-2,4-diamine], the MIC – broadly, the lowest concentration that inhibits growth of the organism – in experiment [1] came out at 8 µg/mL (≈ 27.6 µM).

In experiment [1], `N#Cc1ccc(Cn2ccc3c4nc(N)nc(N)c4ccc32)cc1` [Example 5, 4-((2,4-diamino-7H-pyrrolo[2,3-h]quinazolin-7-yl)methyl)benzonitrile] displayed an MIC of 16 µg/mL (≈ 50.9 µM).

Consider `Nc1nc(N)c2ccc3c(ccn3Cc3cccc(C(F)(F)F)c3)c2n1` [Example 8, 7-(3-(trifluoromethyl)benzyl)-7H-pyrrolo[2,3-h]quinazoline-2,4-diamine], for which the MIC in experiment [1] came to 8 µg/mL (≈ 22.4 µM).

For the molecule `Nc1nc(N)c2ccc3c(ccn3Cc3ccc(OC(F)(F)F)cc3)c2n1` [Example 9, 7-(4-(trifluoromethoxy)benzyl)-7H-pyrrolo[2,3-h]quinazoline-2,4-diamine], in experiment [1], the MIC turned out to be 16 µg/mL (≈ 42.9 µM).

On to `CC(C)c1ccc(Cn2ccc3c4nc(N)nc(N)c4ccc32)cc1` [Example 10, 7-(4-isopropylbenzyl)-7H-pyrrolo[2,3-h]quinazoline-2,4-diamine], for which, in experiment [1], the lowest concentration to inhibit growth (MIC) was 4 µg/mL (≈ 12.1 µM).

`Nc1nc(N)c2ccc3c(ccn3Cc3ccc(C(F)(F)F)c(F)c3)c2n1` [Example 11, 7-(3-fluoro-4-(trifluoromethyl)benzyl)-7H-pyrrolo[2,3-h]quinazoline-2,4-diamine] gave an MIC in experiment [1] of 4 µg/mL (≈ 10.7 µM).

Molecule `Nc1nc(N)c2ccc3c(ccn3Cc3cc(Cl)ccc3F)c2n1` [Example 12, 7-(5-chloro-2-fluorobenzyl)-7H-pyrrolo[2,3-h]quinazoline-2,4-diamine] gave an MIC in experiment [1] of 4 µg/mL (≈ 11.7 µM).

Take `Nc1nc(N)c2ccc3c(ccn3Cc3cc(Cl)ccc3Cl)c2n1` [Example 13, 7-(2,5-dichlorobenzyl)-7H-pyrrolo[2,3-h]quinazoline-2,4-diamine]: the MIC in experiment [1] stood at 16 µg/mL (≈ 44.7 µM).

As for `COc1cc(Cn2ccc3c4nc(N)nc(N)c4ccc32)cc(OC)c1` [Example 14, 7-(3,5-dimethoxybenzyl)-7H-pyrrolo[2,3-h]quinazoline-2,4-diamine], the MIC in experiment [1] was > 64 µg/mL.

Molecule `Nc1nc(N)c2ccc3c(ccn3Cc3ccc(Oc4ccccc4)cc3)c2n1` [Example 15, 7-(4-phenoxybenzyl)-7H-pyrrolo[2,3-h]quinazoline-2,4-diamine] gave an MIC in experiment [1] of 8 µg/mL (≈ 21 µM).

For the molecule `Nc1nc(N)c2ccc3c(ccn3Cc3ccc(-c4ccccc4)cc3)c2n1` [Example 17, 7-([1,1′-biphenyl]-4-ylmethyl)-7H-pyrrolo[2,3-h]quinazoline-2,4-diamine], the MIC in experiment [1] was 8 µg/mL (≈ 21.9 µM).

For the molecule `Nc1nc(N)c2ccc3c(ccn3Cc3cccc(-c4ccccc4)c3)c2n1` [Example 18, 7-([1,1′-biphenyl]-3-ylmethyl)-7H-pyrrolo[2,3-h]quinazoline-2,4-diamine], in experiment [1], the MIC is 16 µg/mL (≈ 43.8 µM).

Regarding `N#Cc1ccccc1-c1ccc(Cn2ccc3c4nc(N)nc(N)c4ccc32)cc1` [Example 19, 4′-((2,4-diamino-7H-pyrrolo[2,3-h]quinazolin-7-yl)methyl)-[1,1′-biphenyl]-2-carbonitrile], the MIC in experiment [1] came out at 0.25 µg/mL (≈ 0.64 µM).

As to `COC(=O)c1ccc(-c2ccc(Cn3ccc4c5nc(N)nc(N)c5ccc43)cc2)cc1` [Example 20, methyl 4′-((2,4-diamino-7H-pyrrolo[2,3-h]quinazolin-7-yl)methyl)-[1,1′-biphenyl]-4-carboxylate], the minimum inhibitory concentration (MIC) in experiment [1] is > 32 µg/mL.

For the molecule `Nc1nc(N)c2ccc3c(ccn3Cc3ccc(Br)cn3)c2n1` [Example 22, 7-((5-bromopyridin-2-yl)methyl)-7H-pyrrolo[2,3-h]quinazoline-2,4-diamine], it took 16 µg/mL (≈ 43.3 µM) to inhibit growth in experiment [1] (MIC).

As to `Cn1c(Cn2ccc3c4nc(N)nc(N)c4ccc32)nc2ccccc21` [Example 23, 7-((1-methyl-1H-benzo[d]midazole-2-yl)methyl)-7H-pyrrolo[2,3-h]quinazoline-2,4-diamine], the MIC in experiment [1] is > 64 µg/mL.

As for `Nc1nc(N)c2ccc3c(ccn3Cc3nc(-c4ccccc4)cs3)c2n1` [Example 24, 7-((4-phenylthiazol-2-yl)methyl)-7H-pyrrolo[2,3-h]quinazoline-2,4-diamine], 4 µg/mL (≈ 10.7 µM) was the least that counted as inhibitory in experiment [1] (MIC).

On to `CC(C)=CCn1ccc2c3nc(N)nc(N)c3ccc21` [Example 25, 7-(3-methylbut-2-en-1-yl)-7H-pyrrolo[2,3-h]quinazoline-2,4-diamine], for which the MIC in experiment [1] was determined as 4 µg/mL (≈ 15 µM).

In turn, `Nc1nc(N)c2ccc3c(ccn3CC3CC3)c2n1` [Example 28, 7-(cyclopropylmethyl)-7H-pyrrolo[2,3-h]quinazoline-2,4-diamine] had an MIC in experiment [1] of 8 µg/mL (≈ 31.6 µM).

The molecule `Nc1nc(N)c2ccc3c(ccn3C(=O)c3ccccc3)c2n1` [Example 29, (2,4-diamino-7H-pyrrolo[2,3-h]quinazolin-7-yl)(phenyl)methanone] gave an MIC in experiment [1] of 32 µg/mL (≈ 105 µM).

The molecule `Cc1cc2c3nc(N)nc(N)c3ccc2n1Cc1cccc(Br)c1` [Example 30, 7-(3-bromobenzyl)-8-methyl-7H-pyrrolo[2,3-h]quinazoline-2,4-diamine] gave an MIC in experiment [1] of 16 µg/mL (≈ 41.9 µM).

Take `Cc1cc2c3nc(N)nc(N)c3ccc2n1Cc1ccc(-c2ccccc2-c2nnn[nH]2)cc1` [Example 32, 7-((2′-(1H-tetrazol-5-yl)-[1,1′-biphenyl]-4-yl)methyl)-8-methyl-7H-pyrrolo[2,3-h]quinazoline-2,4-diamine]: the minimum inhibitory concentration (MIC) in experiment [1] was > 64 µg/mL.

For the molecule `Cc1cc2c3nc(N)nc(N)c3ccc2n1Cc1nc2ccccc2s1` [Example 33, 7-(benzo[d]thiazol-2-ylmethyl)-8-methyl-7H-pyrrolo[2,3-h]quinazoline-2,4-diamine], 8 µg/mL (≈ 22.2 µM) was the least that counted as inhibitory in experiment [1] (MIC).

On to `N#Cc1ccccc1-c1ccc(Cn2ccc3c4nc(N)nc(N)c4ccc32)c(F)c1F` [Example 40, 4′-((2,4-diamino-7H-pyrrolo[2,3-h]quinazolin-7-yl)methyl)-2′,3′-difluoro-[1,1′-biphenyl]-2-carbonitrile], for which the figures for the “Intrinsic MIC in CAMH” value (in experiment [2]; in the experiment with P. mirabilis ATCC 29906; in experiment [3]) were 0.25¤, >64¤ and ≤0.063¤, respectively.

Take `N#Cc1ccccc1-c1ccc(Cn2ccc3c4nc(N)nc(N)c4c(Br)cc32)cc1F` [Example 46, 4′-((2,4-diamino-5-bromo-7H-pyrrolo[2,3-h]quinazolin-7-yl)methyl)-2′-fluoro-[1,1′-biphenyl]-2-carbonitrile]: the “Intrinsic MIC in CAMH” value in experiment [2] is 4¤; in the experiment with P. mirabilis ATCC 29906, >64¤; in experiment [3], 2¤.

`Nc1nc(N)c2c(Br)cc3c(ccn3Cc3cccc(Br)c3)c2n1` [Example 47, 5-bromo-7-(3-bromobenzyl)-7H-pyrrolo[2,3-h]quinazoline-2,4-diamine]: the figures for the “Intrinsic MIC in CAMH” value (in experiment [2]; with P. mirabilis ATCC 29906; in experiment [3]) were 4¤, 8¤ and 4¤, respectively.

Turning to `Nc1nc(NCc2cccc(Br)c2)nc2c1c(Br)cc1c2ccn1Cc1cccc(Br)c1` [Example 48, 5-bromo-N^2,7-bis(3-bromobenzyl)-7H-pyrrolo[2,3-h]quinazoline-2,4-diamine], the “Intrinsic MIC in CAMH” value (in experiment [2]; in the experiment on P. mirabilis ATCC 29906; in experiment [3]) was >64¤ throughout.

On to `N#Cc1ccccc1-c1ccc(Cn2ccc3c4nc(N)nc(N)c4cnc32)cc1F` [Example 51, 4′-((2,4-diamino-7H-pyrrolo[3′,2′:5,6]pyrido[4,3-d]pyrimidin-7-yl)methyl)-2′-fluoro-[1,1′-biphenyl]-2-carbonitrile], for which the “Intrinsic MIC in CAMH” value is given as ≤0.063¤ in experiment [2], >64¤ in the experiment on P. mirabilis ATCC 29906 and ≤0.063¤ in experiment [3].

With `CN[C@H](CC(C)C)C(=O)N[C@H]1C(=O)N[C@@H](CC(N)=O)C(=O)N[C@H]2C(=O)N[C@H]3C(=O)N[C@H](C(=O)N[C@H](C(=O)O)c4cc(O)cc(O)c4-c4cc3ccc4O)[C@H](O)c3ccc(c(Cl)c3)Oc3cc2cc(c3O[C@@H]2O[C@H](CO)[C@@H](O)[C@H](O)[C@H]2O[C@H]2C[C@](C)(N)[C@H](O)[C@H](C)O2)Oc2ccc(cc2Cl)[C@H]1O` [VAN, reference compound], the “Intrinsic MIC in CAMH” value in experiment [2] and in experiment [3] was 2¤ throughout.
